Assay: method code SF-AS, from DOI: 10.1002/jps.2600771105, PMID: 3225751
Conditions: pH 1.0

| SMILES | logD |
| --- | --- |
| CC(C)C1(C)C(=O)NC(=O)NC1=O | 0.54 |
| CC1(C)C(=O)NC(=S)NC1=O | 0.5 |
| C=CCC1(C(C)(C)C)C(=O)NC(=O)NC1=O | 1.64 |
| CC(C)(C)C1(C)C(=O)NC(=O)NC1=O | 0.8 |
| CC(C)C1(C(C)C)C(=O)NC(=O)NC1=O | 1.56 |
| CCCCC1(CCCC)C(=O)NC(=O)NC1=O | 2.7 |
| CC(C)(C)C1(Cl)C(=O)NC(=O)NC1=O | 0.82 |
| CCC1(CC)C(=O)NC(=S)NC1=O | 1.5 |
| CCCC1(CCC)C(=O)NC(=O)NC1=O | 1.75 |
| CC(C)(C)C1C(=O)NC(=O)NC1=O | 0.28 |
| CCC1(C(C)(C)C)C(=O)NC(=O)NC1=O | 1.38 |
| CCCCC1(CC)C(=O)NC(=O)NC1=O | 1.73 |
| CC(C)C1C(=O)NC(=O)NC1=O | -0.02 |
| CCCC1(CCC)C(=O)NC(=S)NC1=O | 2.66 |

Reference: the SangsterLogP compilation
